Reference: the supplement of paper PMC4862054

Columns and labels:
Test in all cases: normalised viability (% of control), CellTiter-Blue; higher = more viable cells (about 100 = DMSO control)
BT-474 [1] = settings: 100 nM; incubation time: 72 h
Procedure: (§1)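 DSRT, CellTiter-Blue viability, 72 h incubation. Signal is normalised to DMSO and benzethonium chloride controls. Value is the normalised response at dose 3.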

BT-549 [2] = settings: 100 nM; incubation time: 72 h
Procedure: as §1

CAL-120 [3] = settings: 100 nM; incubation time: 72 h
Procedure: as §1

CAL-148 [4] = settings: 10 nM; incubation time: 72 h
Procedure: as §1

CAL-51 [5] = settings: 10 nM; incubation time: 72 h
Procedure: as §1

CAL-85-1 [6] = settings: 10 nM; incubation time: 72 h
Procedure: as §1

DU-4475 [7] = settings: 10 nM; incubation time: 72 h
Procedure: as §1

HCC1143 [8] = settings: 100 nM; incubation time: 72 h
Procedure: as §1

HCC1599 [9] = settings: 100 nM; incubation time: 72 h
Procedure: as §1

HCC1937 [10] = settings: 100 nM; incubation time: 72 h
Procedure: as §1

HDQ-P1 [11] = settings: 10 nM; incubation time: 72 h
Procedure: as §1

Hs578T [12] = settings: 100 nM; incubation time: 72 h
Procedure: as §1

MDA-MB-231 [13] = settings: 100 nM; incubation time: 72 h
Procedure: as §1

MDA-MB-436 [14] = settings: 100 nM; incubation time: 72 h
Procedure: as §1

MDA-MB-453 [15] = settings: 10 nM; incubation time: 72 h
Procedure: as §1

MDA-MB-468 [16] = settings: 100 nM; incubation time: 72 h
Procedure: as §1

MFM-223 [17] = settings: 100 nM; incubation time: 72 h
Procedure: as §1

SK-BR-3 [18] = settings: 100 nM; incubation time: 72 h
Procedure: as §1

BT-474 [19] = settings: incubation time: 72 h
How it was run: (§2)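 Plates were quality-checked by Z'-factor and normalised to vehicle (100) and a positive kill control (0). The underlying assay incubated breast cancer cell lines for 72 h on 384-well plates with compound, then added 2.5 µl CellTiter-Blue for 2 h at 37 °C and read at 560/590 nm. The value is normalised viability at a single listed concentration of the series.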

BT-549 [20] = settings: incubation time: 72 h
How it was run: as §2

CAL-120 [21] = settings: incubation time: 72 h
How it was run: as §2

CAL-148 [22] = settings: incubation time: 72 h
How it was run: as §2

CAL-51 [23] = settings: incubation time: 72 h
How it was run: as §2

CAL-85-1 [24] = settings: incubation time: 72 h
How it was run: as §2

DU-4475 [25] = settings: incubation time: 72 h
How it was run: as §2

HCC1143 [26] = settings: incubation time: 72 h
How it was run: as §2

HCC1599 [27] = settings: incubation time: 72 h
How it was run: as §2

HCC1937 [28] = settings: incubation time: 72 h
How it was run: as §2

HDQ-P1 [29] = settings: incubation time: 72 h
How it was run: as §2

Hs578T [30] = settings: incubation time: 72 h
How it was run: as §2

MDA-MB-231 [31] = settings: incubation time: 72 h
How it was run: as §2

MDA-MB-436 [32] = settings: incubation time: 72 h
How it was run: as §2

MDA-MB-453 [33] = settings: incubation time: 72 h
How it was run: as §2

MDA-MB-468 [34] = settings: incubation time: 72 h
How it was run: as §2

MFM-223 [35] = settings: incubation time: 72 h
How it was run: as §2

SK-BR-3 [36] = settings: incubation time: 72 h
How it was run: as §2

O=P(O)(O)C(O)(Cn1ccnc1)P(=O)(O)O [Zoledronic acid]
Settings	normalised viability [%]
BT-474 [1]	102
BT-549 [2]	101
CAL-51 [5]	116
CAL-85-1 [6]	90.2
CAL-120 [3]	94.2
CAL-148 [4]	86.5
DU-4475 [7]	97.7
HCC1143 [8]	89.1
HCC1599 [9]	109
HCC1937 [10]	102
HDQ-P1 [11]	91.5
Hs578T [12]	85.3
MDA-MB-231 [13]	93.9
MDA-MB-436 [14]	113
MDA-MB-453 [15]	96.2
MDA-MB-468 [16]	117
MFM-223 [17]	91.7
SK-BR-3 [18]	91

normalised viability [%]
Settings	3 nM	10 nM	30 nM	100 nM	1000 nM	10000 nM
BT-474 [19]	–	103	–	–	103	117
BT-549 [20]	–	92.5	–	–	108	91.3
CAL-51 [23]	108	–	116	102	–	–
CAL-85-1 [24]	91.6	–	83.2	96.5	–	–
CAL-120 [21]	–	81.2	–	–	98	91.8
CAL-148 [22]	92.2	–	84.4	92.6	–	–
DU-4475 [25]	107	–	95.8	99.8	–	–
HCC1143 [26]	–	82	–	–	85.2	85.2
HCC1599 [27]	–	94.1	–	–	75.3	95.4
HCC1937 [28]	–	96.4	–	–	95.5	99.7
HDQ-P1 [29]	94.6	–	91.9	84.1	–	–
Hs578T [30]	–	95.1	–	–	113	98.2
MDA-MB-231 [31]	–	92.2	–	–	89.3	95.9
MDA-MB-436 [32]	–	95	–	–	89.2	94.3
MDA-MB-453 [33]	101	–	96	101	–	–
MDA-MB-468 [34]	–	107	–	–	102	111
MFM-223 [35]	–	99.3	–	–	86.5	97.2
SK-BR-3 [36]	–	106	–	–	93.9	96.5
